# Results from ChEMBL document CHEMBL4007388, “Synthesis and antiproliferative activity of monocationic arylthiophene derivatives” (Eur J Med Chem, 2017).
# Legend:
# CCRF-CEM = assay: Growth inhibition of human CCRF-CEM cells incubated for 48 hrs by sulforhodamine B assay; assay type: functional
# RPMI-8226 = assay: Growth inhibition of human RPMI8226 cells incubated for 48 hrs by sulforhodamine B assay; assay type: functional; conditions: RPMI-8226, 48 h
# A549 = assay: Growth inhibition of human A549/ATCC cells incubated for 48 hrs by sulforhodamine B assay; assay type: functional; conditions: A549, 48 h
# HOP-92 = assay: Growth inhibition of human HOP92 cells incubated for 48 hrs by sulforhodamine B assay; assay type: functional; conditions: HOP-92, 48 h
# NCI-H226 = assay: Growth inhibition of human NCI-H226 cells incubated for 48 hrs by sulforhodamine B assay; assay type: functional; conditions: NCI-H226, 48 h
# NCI-H23 = assay: Growth inhibition of human NCI-H23 cells incubated for 48 hrs by sulforhodamine B assay; assay type: functional; conditions: NCI-H23, 48 h
# NCI-H322M = assay: Growth inhibition of human NCI-H322M cells incubated for 48 hrs by sulforhodamine B assay; assay type: functional
# NCI-H460 = assay: Growth inhibition of human NCI-H460 cells incubated for 48 hrs by sulforhodamine B assay; assay type: functional; conditions: NCI-H460, 48 h
# NCI-H522 = assay: Growth inhibition of human NCI-H522 cells incubated for 48 hrs by sulforhodamine B assay; assay type: functional; conditions: NCI-H522, 48 h
# COLO 205 = assay: Growth inhibition of human COLO205 cells incubated for 48 hrs by sulforhodamine B assay; assay type: functional; conditions: COLO 205, 48 h
# HCC 2998 = assay: Growth inhibition of human HCC2998 cells incubated for 48 hrs by sulforhodamine B assay; assay type: functional; conditions: HCC 2998, 48 h
# HCT-116 = assay: Growth inhibition of human HCT116 cells incubated for 48 hrs by sulforhodamine B assay; assay type: functional; conditions: HCT-116, 48 h
# HCT-15 = assay: Growth inhibition of human HCT15 cells incubated for 48 hrs by sulforhodamine B assay; assay type: functional; conditions: HCT-15, 48 h
# HT-29 = assay: Growth inhibition of human HT-29 cells incubated for 48 hrs by sulforhodamine B assay; assay type: functional; conditions: HT-29, 48 h
# KM12 = assay: Growth inhibition of human KM12 cells incubated for 48 hrs by sulforhodamine B assay; assay type: functional; conditions: KM12, 48 h
# SW-620 = assay: Growth inhibition of human SW620 cells incubated for 48 hrs by sulforhodamine B assay; assay type: functional; conditions: SW-620, 48 h
# SF-268 = assay: Growth inhibition of human SF268 cells incubated for 48 hrs by sulforhodamine B assay; assay type: functional; conditions: SF-268, 48 h
# SF-295 = assay: Growth inhibition of human SF295 cells incubated for 48 hrs by sulforhodamine B assay; assay type: functional; conditions: SF-295, 48 h
# SF-539 = assay: Growth inhibition of human SF539 cells incubated for 48 hrs by sulforhodamine B assay; assay type: functional; conditions: SF-539, 48 h
# SNB-19 = assay: Growth inhibition of human SNB19 cells incubated for 48 hrs by sulforhodamine B assay; assay type: functional; conditions: SNB-19, 48 h
# SNB-75 = assay: Growth inhibition of human SNB75 cells incubated for 48 hrs by sulforhodamine B assay; assay type: functional; conditions: SNB-75, 48 h
# U-251 = assay: Growth inhibition of human U251 cells incubated for 48 hrs by sulforhodamine B assay; assay type: functional; conditions: U-251, 48 h
# LOX IMVI = assay: Growth inhibition of human LOXIMVI cells incubated for 48 hrs by sulforhodamine B assay; assay type: functional
# Malme-3M = assay: Growth inhibition of human MALME-3M cells incubated for 48 hrs by sulforhodamine B assay; assay type: functional
# M14 = assay: Growth inhibition of human M14 cells incubated for 48 hrs by sulforhodamine B assay; assay type: functional; conditions: M14, 48 h
# MDA-MB-435 = assay: Growth inhibition of human MDA-MB-435 cells incubated for 48 hrs by sulforhodamine B assay; assay type: functional; conditions: MDA-MB-435, 48 h
# SK-MEL-2 = assay: Growth inhibition of human SK-MEL-2 cells incubated for 48 hrs by sulforhodamine B assay; assay type: functional; conditions: SK-MEL-2, 48 h
# SK-MEL-28 = assay: Growth inhibition of human SK-MEL-28 cells incubated for 48 hrs by sulforhodamine B assay; assay type: functional; conditions: SK-MEL-28, 48 h
# SK-MEL-5 = assay: Growth inhibition of human SK-MEL-5 cells incubated for 48 hrs by sulforhodamine B assay; assay type: functional; conditions: SK-MEL-5, 48 h
# UACC-257 = assay: Growth inhibition of human UACC257 cells incubated for 48 hrs by sulforhodamine B assay; assay type: functional; conditions: UACC-257, 48 h
# UACC-62 = assay: Growth inhibition of human UACC62 cells incubated for 48 hrs by sulforhodamine B assay; assay type: functional; conditions: UACC-62, 48 h
# OVCAR-3 = assay: Growth inhibition of human OVCAR3 cells incubated for 48 hrs by sulforhodamine B assay; assay type: functional; conditions: OVCAR-3, 48 h
# OVCAR-4 = assay: Growth inhibition of human OVCAR4 cells incubated for 48 hrs by sulforhodamine B assay; assay type: functional; conditions: OVCAR-4, 48 h
# OVCAR-5 = assay: Growth inhibition of human OVCAR5 cells incubated for 48 hrs by sulforhodamine B assay; assay type: functional; conditions: OVCAR-5, 48 h
# OVCAR-8 = assay: Growth inhibition of human OVCAR8 cells incubated for 48 hrs by sulforhodamine B assay; assay type: functional; conditions: OVCAR-8, 48 h
# NCI/ADR-RES = assay: Growth inhibition of human NCI/ADR-RES cells incubated for 48 hrs by sulforhodamine B assay; assay type: functional
# SK-OV-3 = assay: Growth inhibition of human SKOV3 cells incubated for 48 hrs by sulforhodamine B assay; assay type: functional; conditions: SK-OV-3, 48 h
# 786-0 = assay: Growth inhibition of human 786-O cells incubated for 48 hrs by sulforhodamine B assay; assay type: functional; conditions: 786-0, 48 h
# A498 = assay: Growth inhibition of human A498 cells incubated for 48 hrs by sulforhodamine B assay; assay type: functional; conditions: A498, 48 h
# ACHN = assay: Growth inhibition of human ACHN cells incubated for 48 hrs by sulforhodamine B assay; assay type: functional
# CAKI-1 = assay: Growth inhibition of human Caki1 cells incubated for 48 hrs by sulforhodamine B assay; assay type: functional; conditions: CAKI-1, 48 h
# RXF 393 = assay: Growth inhibition of human RXF393 cells incubated for 48 hrs by sulforhodamine B assay; assay type: functional; conditions: RXF 393, 48 h
# SN12C = assay: Growth inhibition of human SN12C cells incubated for 48 hrs by sulforhodamine B assay; assay type: functional
# TK-10 = assay: Growth inhibition of human TK10 cells incubated for 48 hrs by sulforhodamine B assay; assay type: functional; conditions: TK-10, 48 h
# UO-31 = assay: Growth inhibition of human UO31 cells incubated for 48 hrs by sulforhodamine B assay; assay type: functional; conditions: UO-31, 48 h
# PC-3 = assay: Growth inhibition of human PC3 cells incubated for 48 hrs by sulforhodamine B assay; assay type: functional; conditions: PC-3, 48 h
# DU-145 = assay: Growth inhibition of human DU145 cells incubated for 48 hrs by sulforhodamine B assay; assay type: functional; conditions: DU-145, 48 h
# MCF7 = assay: Growth inhibition of human MCF7 cells incubated for 48 hrs by sulforhodamine B assay; assay type: functional; conditions: MCF7, 48 h
# MDA-MB-231 = assay: Growth inhibition of human MDA-MB-231 cells incubated for 48 hrs by sulforhodamine B assay; assay type: functional; conditions: MDA-MB-231, 48 h
# Hs-578T = assay: Growth inhibition of human Hs 578T cells incubated for 48 hrs by sulforhodamine B assay; assay type: functional
# BT-549 = assay: Growth inhibition of human BT549 cells incubated for 48 hrs by sulforhodamine B assay; assay type: functional; conditions: BT-549, 48 h
# T47D = assay: Growth inhibition of human T47D cells incubated for 48 hrs by sulforhodamine B assay; assay type: functional
# MDA-MB-468 = assay: Growth inhibition of human MDA-MB-468 cells incubated for 48 hrs by sulforhodamine B assay; assay type: functional; conditions: MDA-MB-468, 48 h
# WI-38 = assay: Cytotoxicity against human WI38 cells assessed as reduction in cell viability after 24 hrs by MTT assay; assay type: cell-based; conditions: WI-38, 24 h
# WISH = assay: Cytotoxicity against human WISH cells assessed as reduction in cell viability after 24 hrs by MTT assay; assay type: cell-based
# [1] = Antioxidant activity assessed as superoxide dismutase-like activity by measuring inhibition of superoxide radical anion production at 2 uM by NBT reduction assay relative to control; assay type: functional
# Escherichia coli = assay: Induction of Escherichia coli genomic DNA cleavage after 1 hr by agarose gel electrophoresis method
# Homo sapiens = species on record: Homo sapiens; assay: Inhibition of PTK in human MCF7 cells at 1 uM preincubated for 2 hrs followed by poly-Glu-Tyr substrate addition by ELISA relative to control; assay type: cell-based
# [2] = Growth inhibition of human NCI60 cells at 10 uM after 48 hrs by SRB assay relative to control; values are per cent of control; conditions: NCI60, 48 h
structure (smiles),measurement,setting,value
COc1ccc(-c2ccc(-c3ccc(C(=N)N)cc3)s2)cc1,GI50,CCRF-CEM,231 nM
same,GI50,RPMI-8226,282 nM
same,GI50,A549,226 nM
same,GI50,HOP-92,750 nM
same,GI50,NCI-H226,2140 nM
same,GI50,NCI-H23,665 nM
same,GI50,NCI-H322M,1240 nM
same,GI50,NCI-H460,204 nM
same,GI50,NCI-H522,251 nM
same,GI50,COLO 205,224 nM
same,GI50,HCC 2998,1330 nM
same,GI50,HCT-116,186 nM
same,GI50,HCT-15,183 nM
same,GI50,HT-29,196 nM
same,GI50,KM12,339 nM
same,GI50,SW-620,211 nM
same,GI50,SF-268,1740 nM
same,GI50,SF-295,1270 nM
same,GI50,SF-539,160 nM
same,GI50,SNB-19,811 nM
same,GI50,SNB-75,1710 nM
same,GI50,U-251,232 nM
same,GI50,LOX IMVI,198 nM
same,GI50,Malme-3M,2170 nM
same,GI50,M14,1410 nM
same,GI50,MDA-MB-435,924 nM
same,GI50,SK-MEL-2,2300 nM
same,GI50,SK-MEL-28,1550 nM
same,GI50,SK-MEL-5,1390 nM
same,GI50,UACC-257,2070 nM
same,GI50,UACC-62,1410 nM
same,GI50,OVCAR-3,1730 nM
same,GI50,OVCAR-4,1580 nM
same,GI50,OVCAR-5,180 nM
same,GI50,OVCAR-8,321 nM
same,GI50,NCI/ADR-RES,1490 nM
same,GI50,SK-OV-3,1960 nM
same,GI50,786-0,184 nM
same,GI50,A498,1740 nM
same,GI50,ACHN,359 nM
same,GI50,CAKI-1,1500 nM
same,GI50,RXF 393,1000 nM
same,GI50,SN12C,189 nM
same,GI50,TK-10,1970 nM
same,GI50,UO-31,1670 nM
same,GI50,PC-3,773 nM
same,GI50,DU-145,201 nM
same,GI50,MCF7,175 nM
same,GI50,MDA-MB-231,267 nM
same,GI50,Hs-578T,2140 nM
same,GI50,BT-549,1650 nM
same,GI50,T47D,300 nM
same,GI50,MDA-MB-468,192 nM
same,IC50,WI-38,192000 nM
same,IC50,WISH,180000 nM
same,inhibition,[1],59.2%
same,Activity,Escherichia coli,Dose-dependent effect
same,inhibition,Homo sapiens,19 to 36%
same,growth percent at 10 µM,[2],-70.7%
O=c1[nH]cc(F)c(=O)[nH]1 [FLUOROURACIL],IC50,WI-38,9300 nM
same,IC50,WISH,7100 nM
